Columns and labels:
[1] = system: KP4 cells sub-cutaneous xenografts; experiment: KP4 sub-cutaneous xenografts in nude mice; details: 50 mg/kg/day IP, 5 day/week, from day 11 post engraftment, 37 days
Description: This dose was chosen from previous work on biguanides to treat mice with pancreatic cancer.
Figure 5 Progression of the volume of KP4 cells sub-cutaneous xenografts performed in nude mice over 37 days. […] (B) Body weight of mice seven days after treatment. […] Representative images shown. Scale bar = 100 µm. […] Results are shown in graphics comparing the percentage of cells stained in each category and the intensity of staining. (E,G) Images of the most representative phenotypes for KI67 staining (E) and cleaved caspase 3 (G).
Experimental. All experiments were performed in accordance to the rules of the in vivo ethical committe of University of Montreal (CDEA #17-103). 6-7 weeks old female nude mice (Hsd:Athymic Nude- Foxn1nu, Envigo) were implanted sub-cutaneously with 750.000 KP4 cells in 100μl of a sterile mix of 20% Matrigel (Corning) in saline solution. Tumor volume was determined by using a caliper, following the formula 4/3*Π*(L*W*T) were L represent the length of the tumor, W, the width, and T, the thickness (all measured in millimeter). […] The compounds were dissolved in the vehicle: 45% Propyleneglycol (Sigma-Aldrich) +5% Tween 80 (Sigma-Aldrich) + ddH2O.

[2] = system: NB508 mouse pancreatic ductal adenocarcinoma cells; experiment: In vitro growth inhibition screen at 5 µM, NB508 cells; assay type: cell-based; details: 72 h at 37 °C
Description: (§1) Figure 1 (A) Structure and crystal packing of previously studied PEB-disubstituted (A.1) and monosubstituted (A.2 and A.3) benzimidazolium salts. Compound A.1 is an efficient chloride transporter forming channels and generating holes in bacterial membranes and red blood cellular membranes. Compound A.2 penetrates phospholipid membranes but is less efficient as ion transporter as it forms more compact aggregates; its toxicity on RBC is lower than compound A.1. The replacement of the phenyl group with a methyl group in compound A.3 results in the formation of even more compact aggregates with even lower toxicity on RBC. (B) Structure of PEB-substituted biguanidium salts. For each biguanide we prepared three series of biguanidium salts with different counterions. (C) Synthesis of 4-(phenylethynyl)benzylbiguanide 1 and 4-(phenylethyl)benzylbiguanide 2; (a) Phenylacetylene, PdCl2PPh3, CuI, PPh3, Et3N, THF, 70 °C, o.n. (b) NaCN(BH3)3, EtOHNH4OAc sat./NH3, 80 °C, o.n (c) Dicyandiamide, TMSCl, THFanh., 145 °C, 1 h (d) Pd/C 10%, H2, EtOH/AcOEt, 60 °C, 2 h. (D) Synthesis of 4-(phenylethynylphenyl)biguanidium 3 and 4-(phenylethylphenyl)biguanidium 4 (a) (1) Boc2O, THF, 2 h, (2) Phenylacetylene, PdCl2PPh3, CuI, PPH3, Et3N, THF, 70°, o.n. (b) TFA, DCM, 60 °C, 2 h (c) Dicyandiamide, TMSCl, THFanh, 145 °C, 1 h (d) Pd/C 10%, H2, EtOH/AcOEt, 60 °C, 2 h. The NMR spectra of the synthesized compounds are given in Supplementary Figs. S1–S24. (E) Relative growth of NB508 mouse pancreatic ductal adenocarcinoma cells and IMR90 fibroblasts exposed to 5 µM of PEB-biguanidium salts. Cells were incubated for 72 h at 37 °C. Errors bars represent the standard error of the mean (SEM), *p < 0.05, **p < 0.01, Student’s t test. (F) Crystal structure of 1b showing its self-assembly in the solid state. Crystal data is available in Supplementary Tables S1–S8 and crystal packing in Supplementary Fig. S25. TEXT PRINTED IN THE PICTURE: (A) A.1: HC50: 0.15 mM | (A) A.2: HC50: 1 mM | (A) A.3: HC50: 150 mM
NB508 is an aggressive pro-metastatic pancreatic cancer cell line that we used previously to study the role of mitochondria in pancreatic cancer. […].

KP4 tumor sections = experiment: KI67 and cleaved caspase 3 staining of tumor sections from treated mice; assay type: in vivo, nude mice; details: 50 mg/kg, tumor sections after treatment
Description: (B) Body weight of mice seven days after treatment. […] Representative images shown. Scale bar = 100 µm.
To assess the mechanism of the antitumor activity, we stained tumor sections obtained from animals after the treatment protocol for proliferation marker KI67 and apoptosis marker cleaved caspase 3, and quantified the data according to the scoring key in Fig. 5C. […] However, there were no significant differences in staining for cleaved caspase 3 […].

[3] = HPTS assay, internal pH of EYPC liposomes; details: 5 mM (50 mol% relative to 10 mM EYPC), NaOH pulse at 300 s
Procedure: (§2) Figure 2 (A) Partition of compounds in an U-tube experiment. Concentration of biguanide on the trans-side of the U-tube at 48 h and 72 h at 25 °C, after addition of 250 µM of biguanide on the cis-side. (B) Variation in the internal pH of HPTS-containing EYPC liposomes. Intravesicular solution: 1 mM HPTS, 10 mM HEPES, and 100 mM NaCl, adjusted to pH = 7.4, and extravesicular solution: 10 mM HEPES and 100 mM NaCl, adjusted to pH = 7.4. Biguanidiums were injected after 50 s at 5 mM (50 mol% relative to the 10 mM EYPC concentration), a NaOH pulse was induced at 300 s, and the liposomes were lysed with Triton-X at 550 s. Each curve is the average of three independent measurements. (C) Fluorescence of safranin O in the EYPC liposomes. Biguanidium salts were injected at 5 mM (50 mol% relative to the 10 mM EYPC concentration) at 50 s. Each curve is the average of three independent measurements. […] Mitochondrial isolation was performed according to the previously reported protocol.

[4] = Safranin O assay, membrane potential of EYPC liposomes; details: 5 mM (50 mol% relative to 10 mM EYPC)
Procedure: as §2

[5] = U-tube experiment (partition across a bulk hydrophobic solvent); assay type: physicochemical; details: 250 µM on cis side, up to 72 h
Procedure: as §2
Experimental. U-tube experiment was prepared by adding 800 µL of dichloromethane in a U-shaped tube as a representation of the hydrophobic lipid membrane. On the receiving end (trans side) of the tube was added 300 µL of distilled water while the other side (cis side) was filled with 300 µL of a 250 µM solution of the compound of interest at 25°C. At 48h and 72h, 100 µL aliquot of the trans side was diluted in 900 µL methanol and monitored by LCMS (292 m/z). Area under curve (AUC) was measured and fitted on a calibration curve.

KP4 cells = experiment: Growth assay (crystal violet), KP4 cells; assay type: cell-based, human; details: Homo sapiens, KP-4, 72 h, KP4 cells, 3 days treatment, crystal violet retention assay; read-out: IC50 KP4
Procedure: (§3) All chemicals were purchased from Aldrich Chemicals in their highest purity and used without further purification. Deuterated dimethylsulfoxide (DMSO-d^6) and deuterated chloroform (CDCl3) were purchased from CDN Isotopes. NMR spectra were recorded on Bruker advance 400 and 100 spectrometers. Coupling constants are given in hertz (Hz) and chemical shifts are given in parts per million (ppm, δ) measured relative to the residual solvent (the multiplicity of the signals are given as s: singlet, d: doublet, t: triplet, and m: multiplet). High-resolution mass spectra (HRMS) were recorded on a TSQ Quantum Ultra (Thermo Scientific) triple quadrupole with accurate mass option instrument (Université de Montréal Mass Spectrometry Facility). MS experiences were performed using an UltrafleXtreme MALDI TOF/TOF mass spectrometer equipped with a SmartBeam II Nd:Yag/355 nm laser operating at 1 kHz and providing a laser focus down to 20 μm in diameter (Bruker Daltonics, Billerica, MA). The data acquisition for MS was performed in positive ion mode using the linear geometry with flexControl 3.4 (Bruker Daltonics, Billerica, MA). Acceleration voltage was set to + 25 kV and all other instrumental parameters (delayed extraction parameters, source voltages, detector gain, laser energy, etc.) were optimized for maximum S/N for the drug compounds. L-α-Phosphatidylcholine was purchased from Avanti Polar Lipids. Transport and depolarization studies as well as absorbance measurements were performed on a Varian Cary Eclipse fluorescence spectrophotometer. The hemolysis assays were performed on a Fluostar Optima plate reader. Single crystals of C18H18F3N5O3S were obtained from chloroform. A suitable crystal was selected and analysed on a Bruker Venture Metaljet diffractometer. Crystal violet retention assay was used for cell growth assays and IC50 were determined using Prism (GraphPad). NAD/NADH quantitation colorimetric kit (#K337-100) from Biovision was used according to manufacturer’s instructions. ECAR (extracellular acidification rate) and OCR of KP4 cells (oxygen consumption rate) were measured on a Seahorse XF-24 (Agilent).
(§4) Experimental. KP4 (Riken RCB1005) and PSN1 (ATCC: CRM-CRL-3211), were cultured in Dulbecco's modified Eagle's medium (DMEM) (Wisent, St-Bruno, QC) supplemented with 10 % of fetal bovine serum (FBS) (Wisent). HPNE hTERT (ATCC: CRL1423) were cultured in a mix of 75% DMEM without glucose (Sigma Cat#. D-5030) with additional 2 mM L-glutamine and 1.5 g/L sodium bicarbonate, 25% Medium M3 Base (Incell Corp. Cat# M300F- 500), fetal bovine serum 5% (wisent 10 ng/ml human recombinant EGF (Sigma-Aldrich), 5.5 mM D-glucose (Sigma-Aldrich), 750 ng/ml puromycin (Sigma-Aldrich). For dose-response assays, cells were seeded in 96 well plates (company). After 24 h, treatments were applied and cells were grown for 3 more days. Crystal violet retention assay used for cell growth assays were described previously^2. The data is expressed as relative absorbance of crystal violet extracted from the cells and diluted in 10 % acetic acid. IC50 were determined using Prism (GraphPad). Tumor spheres were grew according to Ferbeyre et al^3.

red blood cells = experiment: Hemolytic activity of PEB-biguanidium salts; assay type: cell-based; details: red blood cells 2% v/v in PBS, 1 h at 37 °C
Procedure: The toxicity of PEB-Biguanidiums salts was estimated through their hemolytic activity by incubating red blood cells (RBC) with the compounds for 1 h (See Supplementary Table S13 and Supplementary Fig. S29).
Experimental. Red blood cells in Alsever’s solution were centrifuged for 10 min at 300g, washed 3 times with PBS buffer, and resuspended in PBS at 2% v/v. To each well of a 96-well plate, 195 µL of red blood cell solution and 5 µL of biguanidium salt in DMSO were added, and the plate was incubated with light agitation for 1 h at 37 °C. The plate was then centrifuged for 10 min at 300g, and 50 µL of the supernatant solution of each well was transferred to another plate. Absorbance was measured at λ = 405 nm. Each measurement was performed in triplicate in three different experiments.

[6] = system: HPNE cells (normal immortalized pancreatic epithelial cells); experiment: Growth assay (crystal violet), HPNE cells; assay type: cell-based, human; details: 3 days treatment, crystal violet retention assay
Procedure: . The IC50 of most of the synthetic biguanides in HPNE cells was higher than for cancer cells (Supplementary Table S12).
as §3, §4

IMR90 fibroblasts = experiment: In vitro growth inhibition screen at 5 µM, IMR90 fibroblasts; assay type: cell-based, human; details: 72 h
Description: as §1, with “The NMR spectra of the synthesized compounds are given in Supplementary Figs. S1–S24. (E) Relative growth of NB508 mouse pancreatic ductal adenocarcinoma cells and IMR90 fibroblasts exposed to 5 µM of PEB-biguanidium salts. Cells were incubated for 72 h at 37 °C. Errors bars represent the standard error of the mean (SEM), *p < 0.05, **p < 0.01, Student’s t test. (F) Crystal structure of 1b showing its self-assembly in the solid state. Crystal data is available in Supplementary Tables S1–S8 and crystal packing in Supplementary Fig. S25. TEXT PRINTED IN THE PICTURE: (A) A.1: HC50: 0.15 mM | (A) A.2: HC50: 1 mM | (A) A.3: HC50: 150 mM” left out

SMILES | Effect on tumor volume [1] | Growth inhibition of NB508 cells [2] | KI67 staining in tumors (KP4 tumor sections) | Change of internal vesicular pH (HPTS) [3] | Membrane depolarization (Safranin-O fluorescence) [4] | Crossing to the trans-aqueous side of the U-tube (in words) [5] | IC50 (KP4 cells) | HC 10% (µM) (red blood cells) | HC 10% (µg/ml) (red blood cells) | IC50 [6] | Selectivity towards cancer cells (NB508 vs IMR90 fibroblasts) (IMR90 fibroblasts)
[H]/N=C(/N)N/C(=N/[H])NCCc1ccccc1 [phenformin, reference compound] | only modest or non-significant effects | no effect was observed | to a smaller extent | no membrane activity | did not show this activity | only traces | – | – | – | – | –
N=C(N)NC(=N)NCc1ccc(C#Cc2ccccc2)cc1 [1a, 4-(phenylethynyl)benzylbiguanide] | – | most important antiproliferative activities | – | – | – | – | 7.55 µM | > 175 µM | > 100 µg/mL | 16.1 µM | good selectivity towards cancer cells
